For assay [1], the target named is T1, Recombinant STAT6 protein (STAT6 (W123-T658)) (Homo sapiens, UniProt P42226).
T1 construct: Recombinant STAT6 protein (STAT6 (W123-T658))
T1 sequence (P42226 123-658): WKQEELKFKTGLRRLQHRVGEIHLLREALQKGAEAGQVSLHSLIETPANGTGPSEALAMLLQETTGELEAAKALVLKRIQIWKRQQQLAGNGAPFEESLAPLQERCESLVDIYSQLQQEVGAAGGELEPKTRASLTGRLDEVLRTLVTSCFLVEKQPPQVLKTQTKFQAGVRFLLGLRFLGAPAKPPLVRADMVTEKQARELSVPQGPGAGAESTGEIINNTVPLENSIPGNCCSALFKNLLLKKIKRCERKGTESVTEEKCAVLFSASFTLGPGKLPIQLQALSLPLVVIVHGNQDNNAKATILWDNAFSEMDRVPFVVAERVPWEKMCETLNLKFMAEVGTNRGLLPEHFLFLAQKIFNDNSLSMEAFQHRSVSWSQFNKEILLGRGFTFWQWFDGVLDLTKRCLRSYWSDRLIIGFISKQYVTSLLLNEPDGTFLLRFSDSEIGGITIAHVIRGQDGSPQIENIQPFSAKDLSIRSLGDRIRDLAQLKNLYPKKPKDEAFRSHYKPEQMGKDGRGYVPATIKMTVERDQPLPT
Put plainly: STAT6 Fluorescence Polarization (FP) Assay. The following applies: STAT6 (W123-T658) 250 nM, probe 5-FAM-Ap[…]-NH2 2 nM, 45-minute incubation; read-out: STAT6 (FP assay IC50 class). The assay is classed as binding. The method, boiled down:
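Protein-probe mix (250 nM STAT6 W123-T658, 2 nM 5-FAM-pTyr peptide) in 10 mM HEPES pH 7.4, 50 mM NaCl, 1 mM EDTA, 0.05% Tween 20, 2 mM DTT; added to compound dilution series, 1% DMSO final; 45 min RT; FP read; IC50 via nonlinear regression.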

In assay [2] the target is T2, Recombinant STAT3 protein (STAT3 (G127-I722)) (Homo sapiens, UniProt P40763).
T2 construct: Recombinant STAT3 protein (STAT3 (G127-I722))
Put plainly: STAT3 Fluorescence Polarization (FP) Assay. Format: binding. The following applies: STAT3 (G127-I722) 25 nM, probe 5-FAM-GpYLPQTV-NH2 2 nM, 45-minute incubation; read-out: STAT3 (FP assay IC50 class). Put shortly:
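In this competition FP format, STAT3 residues G127-I722 (25 nM) and 2 nM 5-FAM-GpYLPQTV-NH2 met test compounds for 45 min at room temperature. IC50 values result from fitting mP signal against log concentration by nonlinear regression.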

Molecules are shown by their SMILES. pIC50: −log10 of the molar value.

T2 sequence (P40763 127-722): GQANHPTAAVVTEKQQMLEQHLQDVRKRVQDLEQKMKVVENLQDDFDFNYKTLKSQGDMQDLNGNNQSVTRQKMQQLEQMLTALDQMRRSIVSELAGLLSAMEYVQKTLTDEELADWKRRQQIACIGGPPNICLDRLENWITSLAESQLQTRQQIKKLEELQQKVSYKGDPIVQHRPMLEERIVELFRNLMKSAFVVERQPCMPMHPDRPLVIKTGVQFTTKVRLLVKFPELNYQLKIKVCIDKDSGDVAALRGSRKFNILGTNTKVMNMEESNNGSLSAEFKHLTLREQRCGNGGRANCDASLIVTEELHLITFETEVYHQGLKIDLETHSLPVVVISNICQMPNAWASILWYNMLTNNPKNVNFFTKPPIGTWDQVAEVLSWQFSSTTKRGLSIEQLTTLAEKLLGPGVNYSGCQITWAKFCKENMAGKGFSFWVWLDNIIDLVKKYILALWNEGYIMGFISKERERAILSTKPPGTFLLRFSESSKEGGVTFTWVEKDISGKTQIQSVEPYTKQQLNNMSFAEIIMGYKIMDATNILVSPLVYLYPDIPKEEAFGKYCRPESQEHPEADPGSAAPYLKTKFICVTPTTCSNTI

On to `O=C(N[C@H]1CCCC[C@H]2CC[C@@H](C(=O)N3CCC(c4cc[nH]n4)CC3)N2C1=O)c1cc2cc(C(F)P(=O)(O)O)ccc2s1` (stereo partly drawn) [Compound 589, ((2-(((3S,6S,10aS)-3-(4-(1H-pyrazol-3-yl)piperidine-1-carbonyl)-5-oxodecahydropyrrolo[1,2-a]azocin-6-yl)carbamoyl)benzo[b]thiophen-5-yl)fluoromethyl)phosphonic acid], for which the pIC50 in assay [1] is 4.52 to 5.52; in assay [2] it was 5.00 to 6.00.
On to `O=C(N[C@H]1CCCC[C@H]2CC[C@@H](C(=O)N3CCC(c4ccncn4)CC3)N2C1=O)c1cc2cc(C(F)P(=O)(O)O)ccc2s1` (stereo partly drawn) [Compound 590, (fluoro(2-(((3S,6S,10aS)-5-oxo-3-(4-(pyrimidin-4-yl)piperidine-1-carbonyl)decahydropyrrolo[1,2-a]azocin-6-yl)carbamoyl)benzo[b]thiophen-5-yl)methyl)phosphonic acid], for which the pIC50 in assay [1] is 4.52 to 5.52; in assay [2], 5.00 to 6.00.
With `O=C(N[C@H]1CCC[C@H]2CC[C@@H](C(=O)N3CCC(c4n[nH]cc4F)CC3)N2C1=O)c1cc2cc(C(F)P(=O)(O)O)ccc2s1` (stereo partly drawn) [Compound 591, (fluoro(2-(((3S,6S,9aS)-3-(4-(4-fluoro-1H-pyrazol-3-yl)piperidine-1-carbonyl)-5-oxooctahydro-1H-pyrrolo[1,2-a]azepin-6-yl)carbamoyl)benzo[b]thiophen-5-yl)methyl)phosphonic acid], the pIC50 was 4.52 to 5.52 in assay [1] and 5.00 to 6.00 in assay [2].
As to `O=C(N[C@H]1CCC[C@H]2CC[C@@H](C(=O)N3CC(c4cc(F)ccc4F)C3)N2C1=O)c1cc2cc(C(F)P(=O)(O)O)ccc2s1` (stereo partly drawn) [Compound 592, ((2-(((3S,6S,9aS)-3-(3-(2,5-difluorophenyl)azetidine-1-carbonyl)-5-oxooctahydro-1H-pyrrolo[1,2-a]azepin-6-yl)carbamoyl)benzo[b]thiophen-5-yl)fluoromethyl)phosphonic acid], the pIC50 is 4.52 to 5.52 in assay [1] and 6.00 to 7.00 in assay [2].
Consider `COc1cc(C(F)F)ncc1C1CN(C(=O)[C@@H]2CC[C@@H]3CCC[C@H](NC(=O)c4cc5cc(CP(=O)(O)O)ccc5s4)C(=O)N32)C1` [Compound 593, ((2-(((3S,6S,9aS)-3-(3-(6-(difluoromethyl)-4-methoxypyridin-3-yl)azetidine-1-carbonyl)-5-oxooctahydro-1H-pyrrolo[1,2-a]azepin-6-yl)carbamoyl)benzo [b]thiophen-5-yl)methyl) phosphonic acid], for which the pIC50 in assay [1] was 4.52 to 5.52; in assay [2] it was 5.00 to 6.00.
Take `COc1ccnc(C(F)F)c1C1CN(C(=O)[C@@H]2CC[C@@H]3CCC[C@H](NC(=O)c4cc5cc(CP(=O)(O)O)ccc5s4)C(=O)N32)C1` [Compound 594, ((2-(((3S,6S,9aS)-3-(3-(2-(difluoromethyl)-4-methoxypyridin-3-yl)azetidine-1-carbonyl)-5-oxooctahydro-1H-pyrrolo[1,2-a]azepin-6-yl)carbamoyl)benzo [b]thiophen-5-yl)methyl) phosphonic acid]: the results for the pIC50 in assay [1] and in assay [2] were 4.52 to 5.52 and 5.00 to 6.00, respectively.
Take `O=C(N[C@H]1CCC[C@H]2CC[C@@H](C(=O)N3CC(c4n[nH]cc4F)C3)N2C1=O)c1cc2cc(C(F)P(=O)(O)O)ccc2s1` (stereo partly drawn) [Compound 595, (fluoro(2-(((3S,6S,9aS)-3-(3-(4-fluoro-1H-pyrazol-3-yl)azetidine-1-carbonyl)-5-oxooctahydro-1H-pyrrolo[1,2-a]azepin-6-yl)carbamoyl)benzo [b]thiophen-5-yl)methyl) phosphonic acid]: the pIC50 was 4.52 to 5.52 in assay [1] and 6.00 to 7.00 in assay [2].
Consider `O=C(N[C@H]1CCC[C@H]2CC[C@@H](C(=O)N3CC(c4cncc(F)c4)C3)N2C1=O)c1cc2cc(C(F)P(=O)(O)O)ccc2s1` (stereo partly drawn) [Compound 596, (fluoro(2-(((3S,6S,9aS)-3-(3-(5-fluoropyridin-3-yl)azetidine-1-carbonyl)-5-oxooctahydro-1H-pyrrolo[1,2-a]azepin-6-yl)carbamoyl)benzo [b]thiophen-5-yl)methyl) phosphonic acid], for which the figures for the pIC50 in assay [1] and in assay [2] were 4.52 to 5.52 and 6.00 to 7.00, respectively.
